Holding throughout (type): cell-based
In one experiment the target is TRPML1 (Homo sapiens, UniProt Q9GZU1). The experiment in a line: Fluorescent TRPML1 assay (Fluo4-AM calcium fluorescence in doxycycline-induced HEK-293 Trex cells). Summed up: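 EC50 values come from non-linear regression of percent activity, normalized to on-plate positive and negative controls, with fluorescence read at 480 nm excitation and 540 nm emission. Fluo4-AM-loaded (1 µM) doxycycline-induced HEK-293 Trex cells expressing mutated human TRPML1 were exposed in 10 mM calcium Ringer's to 6 nM–20 µM compound, in triplicate.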
Sequence of TRPML1 (Q9GZU1 whole entry L15A/L16A/L577A/L578A, form open): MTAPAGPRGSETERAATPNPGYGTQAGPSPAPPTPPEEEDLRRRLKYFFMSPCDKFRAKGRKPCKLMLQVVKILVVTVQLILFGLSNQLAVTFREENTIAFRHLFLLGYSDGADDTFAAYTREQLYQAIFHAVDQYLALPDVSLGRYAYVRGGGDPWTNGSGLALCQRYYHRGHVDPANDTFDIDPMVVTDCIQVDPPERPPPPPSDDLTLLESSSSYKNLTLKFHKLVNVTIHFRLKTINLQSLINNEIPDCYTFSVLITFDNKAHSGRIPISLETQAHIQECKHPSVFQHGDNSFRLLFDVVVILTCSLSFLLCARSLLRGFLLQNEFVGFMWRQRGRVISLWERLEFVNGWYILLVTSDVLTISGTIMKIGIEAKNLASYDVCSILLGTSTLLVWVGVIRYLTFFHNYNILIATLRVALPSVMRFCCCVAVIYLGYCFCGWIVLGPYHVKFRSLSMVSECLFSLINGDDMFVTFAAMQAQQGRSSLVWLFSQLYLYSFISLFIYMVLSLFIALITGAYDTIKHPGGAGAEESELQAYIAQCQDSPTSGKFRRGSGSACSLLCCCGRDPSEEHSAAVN

The target in another experiment is T1, TRPML2 (Homo sapiens, UniProt Q8IZK6).
T1 construct: expressed in transfected cells
T1 sequence (Q8IZK6 1-566): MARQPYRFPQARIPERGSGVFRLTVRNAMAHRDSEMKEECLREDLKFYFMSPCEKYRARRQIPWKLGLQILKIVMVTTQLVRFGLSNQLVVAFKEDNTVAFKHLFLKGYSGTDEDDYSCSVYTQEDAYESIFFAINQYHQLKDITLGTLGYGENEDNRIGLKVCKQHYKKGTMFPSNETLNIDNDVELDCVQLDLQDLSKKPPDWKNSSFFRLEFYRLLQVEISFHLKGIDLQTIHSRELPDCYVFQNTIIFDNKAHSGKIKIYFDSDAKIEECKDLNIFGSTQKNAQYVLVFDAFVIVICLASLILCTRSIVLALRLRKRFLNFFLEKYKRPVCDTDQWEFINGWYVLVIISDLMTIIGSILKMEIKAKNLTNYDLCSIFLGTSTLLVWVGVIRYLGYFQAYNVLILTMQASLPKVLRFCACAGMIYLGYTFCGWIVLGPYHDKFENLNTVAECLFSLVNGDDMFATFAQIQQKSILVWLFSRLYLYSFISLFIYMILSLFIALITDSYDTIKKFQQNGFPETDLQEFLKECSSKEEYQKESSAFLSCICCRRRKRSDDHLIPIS
The experiment is described as follows: Fluorescent TRPML2 assay (performed as for TRPML1, substituting the TRPML2 subtype). Summed up:
(§1)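 HEK-293 Trex, dox-induced (0.5 ug/mL), mutated for surface expression. Fluo4-AM 1 micromolar load ~60 min, dark; buffer modified Ringer's, 10 mM Ca. Cpds 20 micromolar–6 nanomolar final, half-log, n=3. Read ex 480/em 540; % activity vs controls; EC50 nonlinear fit.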

In the next experiment the target is T2, TRPML3 (Homo sapiens, UniProt Q8TDD5).
T2 construct: expressed in transfected cells
T2 sequence (Q8TDD5 1-553): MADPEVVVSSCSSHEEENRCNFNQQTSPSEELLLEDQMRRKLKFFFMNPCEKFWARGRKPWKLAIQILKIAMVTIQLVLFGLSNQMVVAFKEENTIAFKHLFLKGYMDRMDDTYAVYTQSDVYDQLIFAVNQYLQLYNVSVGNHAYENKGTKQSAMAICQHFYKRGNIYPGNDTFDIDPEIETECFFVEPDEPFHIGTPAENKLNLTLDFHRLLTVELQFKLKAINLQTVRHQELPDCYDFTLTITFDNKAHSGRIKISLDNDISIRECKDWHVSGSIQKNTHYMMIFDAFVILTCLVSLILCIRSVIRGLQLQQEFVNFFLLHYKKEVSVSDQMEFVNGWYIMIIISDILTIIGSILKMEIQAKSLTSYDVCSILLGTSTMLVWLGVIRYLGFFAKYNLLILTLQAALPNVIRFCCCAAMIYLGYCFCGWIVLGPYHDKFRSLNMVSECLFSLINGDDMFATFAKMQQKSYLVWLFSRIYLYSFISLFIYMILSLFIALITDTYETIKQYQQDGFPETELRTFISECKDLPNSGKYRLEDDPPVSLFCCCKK
The experiment is described as follows: Fluorescent TRPML3 assay (performed as for TRPML1, substituting the TRPML3 subtype). A digest of the protocol:
as §1

The structures appear in SMILES notation.

A word on the EC50: it is the concentration giving half of the maximal effect. In the case of `C[C@H]1CN(C(=O)OC(C)(C)C)CCN1c1ncnc2c1c(N(C)C1CC1)cn2-c1cccc(C#N)c1` [Compound 526], the EC50 at TRPML1, on TRPML2 and on TRPML3 was 100 to 500 nM in each case.
As for `C[C@H]1CN(C(=O)OC(C)(C)C)CCN1c1ncnc2c1c(C1CC1)cn2[C@H]1CCC[C@@H](C#N)C1` [Compound 527, tert-butyl (S)-4-(7-(cis-3-cyanocyclohexyl)-5-cyclopropyl-7H-pyrrolo[2,3-d]pyrimidin-4-yl)-3-methylpiperazine-1-carboxylate], the figures for the EC50 on TRPML1, on TRPML2 and on TRPML3 were 500 to 2000 nM, greater than 2000 nM and 500 to 2000 nM, respectively.
As to `CC(C)(C)OC(=O)N1CCN(c2ncnc3c2c(C(F)(F)F)cn3-c2cc(C#N)ccn2)C(C)(C)C1` [Compound 528, tert-butyl 4-(7-(4-cyanopyridin-2-yl)-5-(trifluoromethyl)-7H-pyrrolo[2,3-d]pyrimidin-4-yl)-3,3-dimethylpiperazine-1-carboxylate], the EC50 was 100 to 500 nM on TRPML1, less than 100 nM on TRPML2 and less than 100 nM on TRPML3.
Turning to `C[C@H]1CN(C(=O)OC(C)(C)C)CCN1c1ncnc2c1c(N1CCCC1)cn2[C@H]1CCC[C@@H](C#N)C1` [Compound 529, tert-butyl (S)-4-(7-(cis-3-cyanocyclohexyl)-5-(pyrrolidin-1-yl)-7H-pyrrolo[2,3-d]pyrimidin-4-yl)-3-methylpiperazine-1-carboxylate], the EC50 on TRPML1 was 500 to 2000 nM; on TRPML2, greater than 2000 nM; at TRPML3, 100 to 500 nM.
`CC(C)(C)OC(=O)N1CCN(c2ncnc3c2c(C(F)(F)F)cn3-c2cc(C#N)ccn2)C2(CC2)C1` [Compound 530, tert-butyl 4-(7-(4-cyanopyridin-2-yl)-5-(trifluoromethyl)-7H-pyrrolo[2,3-d]pyrimidin-4-yl)-4,7-diazaspiro[2.5]octane-7-carboxylate]: the EC50 at TRPML1, at TRPML2 and at TRPML3 was less than 100 nM in each case.
`C[C@@H]1CN(c2ncnc3c2c(C(C)(C)C)cn3-c2nccc(C#N)n2)[C@@H](C)CN1C(=O)OC(C)(C)C` [Compound 532, tert-butyl (2R,5S)-4-(5-(tert-butyl)-7-(4-cyanopyrimidin-2-yl)-7H-pyrrolo[2,3-d]pyrimidin-4-yl)-2,5-dimethylpiperazine-1-carboxylate]: the EC50 at TRPML1 was less than 100 nM; at TRPML2, 500 to 2000 nM; at TRPML3, 100 to 500 nM.
`C[C@@H]1CN(c2ncnc3c2c(C(C)(C)C)cn3-c2cc(C#N)ncn2)[C@@H](C)CN1C(=O)OC(C)(C)C` [Compound 533, tert-butyl (2R,5S)-4-(5-(tert-butyl)-7-(6-cyanopyrimidin-4-yl)-7H-pyrrolo[2,3-d]pyrimidin-4-yl)-2,5-dimethylpiperazine-1-carboxylate]: the EC50 at TRPML1, at TRPML2 and at TRPML3 was less than 100 nM each time.
As to `C[C@@H]1CN(c2ncnc3c2c(C(F)(F)F)cn3-c2cc(C#N)ccn2)[C@@H](C)CN1C(=O)OC1(C)CCC1` [Compound 535, 1-methylcyclobutyl (2R,5S)-4-(7-(4-cyanopyridin-2-yl)-5-(trifluoromethyl)-7H-pyrrolo[2,3-d]pyrimidin-4-yl)-2,5-dimethylpiperazine-1-carboxylate], the EC50 at TRPML1, on TRPML2 and on TRPML3 was less than 100 nM in each case.
As to `C[C@@H]1CN(c2ncnc3c2c(C(F)(F)F)cn3-c2cc(C(F)(F)F)ccn2)[C@@H](C)CN1C(=O)OC(C)(C)C` [Compound 536, tert-butyl (2R,5S)-2,5-dimethyl-4-(5-(trifluoromethyl)-7-(4-(trifluoromethyl)pyridin-2-yl)-7H-pyrrolo[2,3-d]pyrimidin-4-yl)piperazine-1-carboxylate], the EC50 on TRPML1, on TRPML2 and on TRPML3 was less than 100 nM in each case.
With `Cc1cn(-c2cc(C(F)(F)F)ccn2)c2ncnc(N3C[C@@H](C)N(C(=O)OC(C)(C)C)C[C@@H]3C)c12` [Compound 537, tert-butyl (2R,5S)-2,5-dimethyl-4-(5-methyl-7-(4-(trifluoromethyl)pyridin-2-yl)-7H-pyrrolo[2,3-d]pyrimidin-4-yl)piperazine-1-carboxylate], the EC50 at TRPML1, on TRPML2 and at TRPML3 was less than 100 nM each time.
In the case of `[2H]C([2H])([2H])C(OC(=O)N1C[C@H](C)N(c2ncnc3c2c(C(F)F)cn3-c2cc(C#N)ccn2)C[C@H]1C)(C([2H])([2H])[2H])C([2H])([2H])[2H]` [Compound 538, 2-(methyl-d3)propan-2-yl-1,1,1,3,3,3-d6 (2R,5S)-4-(7-(4-cyanopyridin-2-yl)-5-(difluoromethyl)-7H-pyrrolo[2,3-d]pyrimidin-4-yl)-2,5-dimethylpiperazine-1-carboxylate], the EC50 was less than 100 nM at TRPML1, 100 to 500 nM at TRPML2 and less than 100 nM on TRPML3.
Take `CC(C)(C)OC(=O)N1CCN(c2ncnc3c2c(N2CCCC2)cn3-c2cc(C#N)ccn2)C(C)(C)C1` [Compound 601, tert-butyl 4-(7-(4-cyanopyridin-2-yl)-5-(pyrrolidin-1-yl)-7H-pyrrolo[2,3-d]pyrimidin-4-yl)-3,3-dimethylpiperazine-1-carboxylate]: the values for the EC50 at TRPML1, at TRPML2 and at TRPML3 were less than 100 nM, 100 to 500 nM and less than 100 nM, respectively.
As for `[2H]C([2H])([2H])C(OC(=O)N1C[C@@H](C)N(c2ncnc3c2c(C(F)(F)F)cn3-c2cc(C#N)ccn2)C[C@H]1C)(C([2H])([2H])[2H])C([2H])([2H])[2H]` [Compound 602, 2-(methyl-d3)propan-2-yl-1,1,1,3,3,3-d6 (2R,5R)-4-(7-(4-cyanopyridin-2-yl)-5-(trifluoromethyl)-7H-pyrrolo[2,3-d]pyrimidin-4-yl)-2,5-dimethylpiperazine-1-carboxylate], the EC50 at TRPML1 was less than 100 nM; on TRPML2, 500 to 2000 nM; at TRPML3 it was 100 to 500 nM.
Taken in the same sequence, the figures for `[2H]C([2H])([2H])C(OC(=O)N1C[C@H](C)N(c2ncnc3c2c(C(F)(F)F)cn3-c2cc(C#N)ccn2)C[C@@H]1C)(C([2H])([2H])[2H])C([2H])([2H])[2H]` [Compound 603, 2-(methyl-d3)propan-2-yl-1,1,1,3,3,3-d6 (2S,5S)-4-(7-(4-cyanopyridin-2-yl)-5-(trifluoromethyl)-7H-pyrrolo[2,3-d]pyrimidin-4-yl)-2,5-dimethylpiperazine-1-carboxylate] were less than 100 nM, 500 to 2000 nM and less than 100 nM.
The matching figures for `C[C@@H]1CN(c2ncnc3c2c(C(F)(F)F)cn3-c2cc(C#N)ccn2)[C@@H](C)CN1C(=O)OC1(C(F)(F)F)CCC1` [Compound 604, 1-(trifluoromethyl)cyclobutyl (2R,5S)-4-(7-(4-cyanopyridin-2-yl)-5-(trifluoromethyl)-7H-pyrrolo[2,3-d]pyrimidin-4-yl)-2,5-dimethylpiperazine-1-carboxylate]: less than 100 nM, 100 to 500 nM and less than 100 nM.
In the case of `C[C@@H]1CN(c2ncnc3c2c(C(F)F)cn3-c2cc(C#N)ccn2)[C@@H](C)CN1C(=O)OC1(C)CCC1` [Compound 605, 1-methylcyclobutyl (2R,5S)-4-(7-(4-cyanopyridin-2-yl)-5-(difluoromethyl)-7H-pyrrolo[2,3-d]pyrimidin-4-yl)-2,5-dimethylpiperazine-1-carboxylate], the results for the EC50 on TRPML1, on TRPML2 and at TRPML3 were less than 100 nM, 100 to 500 nM and less than 100 nM, respectively.
For `C[C@@H]1CN(c2ncnc3c2c(C(F)F)cn3-c2cccc(Cl)c2)[C@@H](C)CN1C(=O)OC1(C)CC1` [Compound 608, 1-methylcyclopropyl (2R,5S)-4-(7-(3-chlorophenyl)-5-(difluoromethyl)-7H-pyrrolo[2,3-d]pyrimidin-4-yl)-2,5-dimethylpiperazine-1-carboxylate], the EC50 at TRPML1 is 100 to 500 nM; at TRPML2, greater than 2000 nM; at TRPML3 it was less than 100 nM.

The values are drawn from US20250136606A1, “MODULATORS OF TRPML, THEIR COMPOSITIONS AND METHODS OF USE” (Caraway Therapeutics, Inc., priority 2021, published 2025).
